In patent US9457033B2, “Steroid alkaloids and uses thereof as antimicrobial agents against electron transport-deficient microbes and as potentiators for antimicrobial agents against pathogenic bacteria” (priority 2011, dated 2016):
≈ marks a conversion by molar mass, not a printed value. Counter-ions that a name gives are not always drawn.

Key:
Format in all cases: cell-based, Staphylococcus aureus
[1] = tested on: S. aureus SCV strain NewbouldΔhemB; test: MIC of compounds against SCV; details: for MIC of Cpd against SCV hemB: provided in categories (strong ≦ 0.5; moderate 4-8; low > 8); for MIC: Staphylococcus aureus, read-out: MIC of Cpd against SCV hemB
[2] = tested on: S. aureus ATCC 29213; test: MIC, microdilution in CAMHB 24 h, with or without tomatidine/compound; details: for MIC: Staphylococcus aureus; for Fold (−TO/+TO): tomatidine at 8 μg/ml
[3] = tested on: S. aureus ATCC 29213; test: Checkerboard assay, aminoglycoside and tomatidine; details: for MIC: Staphylococcus aureus, ATCC29213, checkerboard; for FIC index: aminoglycoside with tomatidine, tomatidine MIC considered 32 μg/ml, values overestimated; for Aminoglycoside MIC: checkerboard
Experimental: This checkerboard protocol (Eliopoulos and Moellering, 1996) was conducted by a microdilution method similar to that use for standard MICs determination. In 96 wells plates, antibiotics were loaded at a 4× concentration (where X is the maximal tested concentration) in well A1 and at a 2× concentration in the others wells of the column 1. Antibiotics were serially diluted 1:1 from the column 2 to column 10. […] Wells A12, B12, […] are positive untreated controls whereas wells […] are negative non-inoculated controls. […] The FIC index was calculated as follow (Eliopoulos and Moellering, 1996): FIC […]/MICB, where A and B are MICs of compounds A and B in combination and where MICA and MICB are the MICs of compound A alone and of compound B alone, respectively, and FICA and FICB are the FICs of compound A and of compound B, respectively.

[4] = gentamicin with 8 μg/ml of Cpd, provided in categories of synergy (1-2 no or mild; 4-16 moderate or strong)
[5] = ATCC29213, read-out: MIC of Cpd against ATCC29213

Row | Molecule | MIC of Cpd against SCV hemB [1] | MIC of Cpd against ATCC29213 ([2]; compound alone) | Fold (MIC of GEN alone/MIC of GEN with Cpd) [2, 4] | MIC [1] | MIC [2, 5] | also measured
1 | CS(=O)(=O)O.C[C@H]1CC[C@]2(NC1)O[C@H]1C[C@H]3[C@@H]4CC[C@H]5C[C@@H](O)CC[C@]5(C)[C@H]4CC[C@]3(C)[C@H]1[C@@H]2C [Compound 57, tomatidine methanesulfonate] | ≦0.5 μg/ml | >16 µg/mL | 4-16 fold | – | – | –
2 | CN(C)CC(=O)[C@H]1CC[C@H]2[C@@H]3CC[C@H]4C[C@@H](O)CC[C@]4(C)[C@H]3CC[C@]12C [Compound 47, N,N-dimethyl-21-aminopregnanolone] | – | – | 1-2 fold | > 8 µg/mL | > 16 µg/mL | –
3 | [H]/N=C(/N)N[C@H]1[C@H](O)[C@@H](O)[C@H](O[C@@H]2O[C@@H](C)[C@](O)(C=O)[C@H]2O[C@@H]2O[C@@H](CO)[C@H](O)[C@@H](O)[C@@H]2NC)[C@@H](N/C(N)=N\[H])[C@@H]1O [Streptomycin, streptomycin] | – | – | – | – | – | MIC ([3]; tomatidine 0 μg/ml): 4 to 8 µg/mL; MIC ([3]; tomatidine 0.06 μg/ml): 4 µg/mL; MIC ([3]; tomatidine 0.12 μg/ml): 2 µg/mL; MIC ([3]; tomatidine 0.25 μg/ml): 1 to 2 µg/mL; MIC ([3]; tomatidine 0.5 μg/ml): 1 µg/mL; MIC ([3]; tomatidine 1 μg/ml): 1 µg/mL; MIC ([3]; tomatidine 2 μg/ml): 1 µg/mL; MIC ([3]; tomatidine 4 μg/ml): 1 µg/mL; MIC ([3]; tomatidine 8 μg/ml): 1 µg/mL; FIC index [3]: ≦0.199; Fold (−TO/+TO) ([2]; ATCC 29213): 4-8 fold; MIC ([2]; ATCC29213, ATCC 29213, absence of tomatidine, read-out: MIC −TO): 4 to 8 µg/mL (≈ 6.88 to 13.8 µM); MIC ([2]; ATCC29213, ATCC 29213, presence of tomatidine at 8 μg/ml, read-out: MIC +TO): 1 µg/mL
4 | C[C@]12CC[C@H]3[C@@H](CCC4CC(O)CC[C@@]43C)[C@@H]1CC[C@@H]2C(=O)CN1CCNCC1.Cl (some centres unmarked) [Compound 50, 21-piperazinopregnanolone hydrochloride Salt] | >8 µg/mL | >16 µg/mL | 1-2 fold | – | – | –
5 | C[C@]12CC[C@H](O)C[C@@H]1CC[C@@H]1[C@@H]2CC[C@]2(C)[C@@H](C(=O)CN3CCCCC3)CC[C@@H]12 [Compound 48, 21-piperidinopregnanolone] | – | – | 1-2 fold | > 8 µg/mL | > 16 µg/mL | –
6 | C[C@H]1CC[C@]2(NC1)O[C@H]1C[C@H]3[C@@H]4CC[C@H]5CC(=O)CC[C@]5(C)[C@H]4CC[C@]3(C)[C@H]1[C@@H]2C.Cl [Compound 25, 3-oxotomatidine hydrochloride Salt] | ≦0.5 μg/ml | >16 µg/mL | 4-16 fold | – | – | –
7 | C=CCOC1CCC2(C)C(CCC3C2CCC2(C)C3CC3OC4(CCC(C)CN4)C(C)C32)C1.Cl (centres unmarked) [Compound 56, O-allyltomatidine hydrochloride Salt] | ≦0.5 μg/ml | 8 to 16 µg/mL | – | – | – | Fold (MIC of GEN alone/MIC of GEN with Cpd) ([2]; gentamicin with Compound 56 used at 4 μg/ml, categories of synergy): 4-16 fold
8 | C[C@H](CN)CCC[C@@H](C)C1[C@@H](O)C[C@H]2[C@@H]3CC[C@H]4C[C@@H](O)CC[C@]4(C)[C@H]3CC[C@]12C (some centres unmarked) [Compound 26] | – | – | 4-16 fold | ≤ 0.5 µg/mL | > 16 µg/mL | –
9 | CNCC(=O)[C@H]1CC[C@H]2[C@@H]3CCC4CC(O)CC[C@]4(C)[C@H]3CC[C@]12C.Cl (some centres unmarked) [Compound 49, N-methyl-21-aminopregnanolone hydrochloride salt] | >8 µg/mL | >16 µg/mL | 1-2 fold | – | – | –
10 | C[C@H]1CC[C@]2(NC1)O[C@@]1(C)C[C@@]3(C)[C@@H]4CC[C@@]5(C)C[C@@H](O)CC[C@]5(C)[C@@]4(C)CC[C@]3(C)[C@@]1(C)[C@@H]2C.O=C(O)CC(O)(CC(=O)O)C(=O)O [Compound 58, tomatidine citrate] | – | – | 4-16 fold | ≤ 0.5 µg/mL | > 16 µg/mL | –
11 | CC(=O)[C@H]1CC[C@H]2[C@@H]3CC[C@H]4C[C@@H](O)CC[C@]4(C)[C@H]3CC[C@]12C [Compound 28, Pregnanolone] | – | – | 1-2 fold | > 8 µg/mL | > 16 µg/mL | –
12 | pregnan-3β-ol-20-(aminobutyl)amine hydrochloride Salt [Compound 44] | >8 µg/mL | >16 µg/mL | 1-2 fold | – | – | –
13 | CC(O)[C@H]1CC[C@H]2[C@@H]3CC[C@H]4C[C@@H](O)CC[C@]4(C)[C@H]3CC[C@]12C (stereo in doubt) [Compound 54, pregnane-3,20-diol] | – | – | 1-2 fold | > 8 µg/mL | – | MIC ([2]; ATCC29213, compound alone, read-out: MIC of Cpd against ATCC29213): > 16 µg/mL
14 | NCC[C@H](O)C(=O)N[C@@H]1C[C@H](N)[C@@H](O[C@H]2O[C@H](CN)[C@@H](O)[C@H](O)[C@H]2O)[C@H](O)[C@H]1O[C@H]1O[C@H](CO)[C@@H](O)[C@H](N)[C@H]1O [Amikacin, amikacin] | – | – | – | – | – | FIC index [3]: ≦0.133; Aminoglycoside MIC ([3]; tomatidine 0 μg/ml): 2 µg/mL; Aminoglycoside MIC ([3]; tomatidine 0.06 μg/ml): 2 µg/mL; Aminoglycoside MIC ([3]; tomatidine 0.12 μg/ml): 0.5 µg/mL; Aminoglycoside MIC ([3]; tomatidine 0.25 μg/ml): 0.25 µg/mL; Aminoglycoside MIC ([3]; tomatidine 0.5 μg/ml): 0.25 to 0.5 µg/mL; Aminoglycoside MIC ([3]; tomatidine 1 μg/ml): 0.25 to 1 µg/mL; Aminoglycoside MIC ([3]; tomatidine 2 μg/ml): 0.25 to 1 µg/mL; Aminoglycoside MIC ([3]; tomatidine 4 μg/ml): 0.25 µg/mL; Aminoglycoside MIC ([3]; tomatidine 8 μg/ml): 0.5 µg/mL; MIC −TO ([2]; ATCC 29213, absence of tomatidine): 2 µg/mL (≈ 3.42 µM); MIC +TO ([2]; ATCC 29213, presence of tomatidine at 8 μg/ml): 0.5 µg/mL; Fold (−TO/+TO) ([2]; ATCC 29213): 4 fold
15 | Solasodan | >8 µg/mL | >16 µg/mL | 1-2 fold | – | – | –
16 | C[C@H]1CC[C@]2(NC1)O[C@H]1C[C@H]3[C@@H]4CC[C@H]5C[C@@H](O)CC[C@]5(C)[C@H]4CC[C@]3(C)[C@H]1[C@@H]2C [Tomatidine hydrochloride salt] | – | – | 4-16 fold | ≤ 0.5 µg/mL | > 16 µg/mL | –
17 | C[C@H]1CC[C@@]2(O[C@H]3C[C@H]4[C@@H]5CC[C@H]6C[C@@H](O)CC[C@]6(C)[C@H]5CC[C@]4(C)[C@H]3[C@@H]2C)N(C=O)C1 [Compound 21, N-formyl tomatidine] | >8 µg/mL | >16 µg/mL | 1-2 fold | – | – | –
18 | pregnan-3β-ol-20-(aminoethyl)amine hydrochloride Salt [Compound 42] | 4 to 8 µg/mL | >16 µg/mL | 1-2 fold | – | – | –
19 | pregnan-3β-ol-20-(aminopropyl)amine hydrochloride Salt [Compound 43] | 4 to 8 µg/mL | >16 µg/mL | 1-2 fold | – | – | –
